# PubChem BioAssay (NCI)
#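 Method: 48-hour compound exposure of cells in 96-well plates, five concentrations, linear interpolation of endpoints. Abbreviation: GI50, concentration required for 50% inhibition of growth. The concentration for full growth arrest is given as TGI.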
# How the values were obtained:
# Assay in all cases: DTP human tumour cell line panel, 48 h
# RPMI-8226 leukemia = system: RPMI-8226 leukemia
# SW-620 colon = system: SW-620 colon
# NCI-H226 lung = system: NCI-H226 lung
# IGROV1 ovarian = system: IGROV1 ovarian
# HCT-15 colon = system: HCT-15 colon
# HOP-62 NSCLC = system: HOP-62 NSCLC
# NCI-H522 lung = system: NCI-H522 lung
# SF-295 CNS = system: SF-295 CNS
# SF-539 CNS = system: SF-539 CNS
# RXF 393 renal = system: RXF 393 renal
# SK-MEL-2 melanoma = system: SK-MEL-2 melanoma
# UACC-62 melanoma = system: UACC-62 melanoma
# A549 NSCLC = system: A549 NSCLC
# SN12C renal = system: SN12C renal
# NCI-H23 lung = system: NCI-H23 lung
# HCT-116 colon = system: HCT-116 colon
# PC-3 prostate = system: PC-3 prostate
# A498 renal = system: A498 renal
# MDA-MB-231 breast = system: MDA-MB-231 breast
# K-562 leukemia = system: K-562 leukemia
# MDA-MB-435 = system: MDA-MB-435
# EKVX NSCLC = system: EKVX NSCLC
# HT29 colon = system: HT29 colon
# 786-0 renal = system: 786-0 renal
# MALME-3M melanoma = system: MALME-3M melanoma
# UO-31 renal = system: UO-31 renal
# UACC-257 melanoma = system: UACC-257 melanoma
# ACHN renal = system: ACHN renal
# SK-MEL-5 melanoma = system: SK-MEL-5 melanoma
smiles,measurement,setting,value
Cn1c(=O)n(CCCO)c(=O)c2c1nc(Oc1cccc(OC(F)(F)F)c1)n2Cc1ccc(Cl)cc1,GI50,RPMI-8226 leukemia,10.4 µM
same,TGI,RPMI-8226 leukemia,51.3 µM
same,GI50,SW-620 colon,13.1 µM
same,TGI,SW-620 colon,31.2 µM
same,GI50,NCI-H226 lung,16.8 µM
same,TGI,NCI-H226 lung,38.4 µM
same,GI50,IGROV1 ovarian,14.2 µM
same,TGI,IGROV1 ovarian,31.9 µM
same,GI50,HCT-15 colon,10.2 µM
same,TGI,HCT-15 colon,28.7 µM
same,GI50,HOP-62 NSCLC,16 µM
same,TGI,HOP-62 NSCLC,33.3 µM
same,GI50,NCI-H522 lung,6.06 µM
same,TGI,NCI-H522 lung,23.2 µM
same,GI50,SF-295 CNS,13 µM
same,TGI,SF-295 CNS,28.5 µM
same,GI50,SF-539 CNS,12.9 µM
same,TGI,SF-539 CNS,26.9 µM
same,GI50,RXF 393 renal,11.2 µM
same,TGI,RXF 393 renal,27.3 µM
same,GI50,SK-MEL-2 melanoma,14.7 µM
same,TGI,SK-MEL-2 melanoma,32.6 µM
same,GI50,UACC-62 melanoma,13.2 µM
same,TGI,UACC-62 melanoma,29.1 µM
same,GI50,A549 NSCLC,11.2 µM
same,TGI,A549 NSCLC,25.5 µM
same,GI50,SN12C renal,13 µM
same,TGI,SN12C renal,29.8 µM
same,GI50,NCI-H23 lung,15.8 µM
same,TGI,NCI-H23 lung,37.6 µM
same,GI50,HCT-116 colon,5.46 µM
same,TGI,HCT-116 colon,19.6 µM
same,GI50,PC-3 prostate,13.7 µM
same,TGI,PC-3 prostate,29.3 µM
same,GI50,A498 renal,13.8 µM
same,TGI,A498 renal,26.9 µM
same,GI50,MDA-MB-231 breast,14.6 µM
same,TGI,MDA-MB-231 breast,32.1 µM
same,GI50,K-562 leukemia,7.72 µM
same,TGI,K-562 leukemia,68.8 µM
same,GI50,MDA-MB-435,11.8 µM
same,TGI,MDA-MB-435,27.2 µM
same,GI50,EKVX NSCLC,12.4 µM
same,TGI,EKVX NSCLC,32.2 µM
same,GI50,HT29 colon,8.01 µM
same,TGI,HT29 colon,23.2 µM
same,GI50,786-0 renal,12.5 µM
same,TGI,786-0 renal,27.4 µM
same,GI50,MALME-3M melanoma,15.7 µM
same,TGI,MALME-3M melanoma,31.6 µM
same,GI50,UO-31 renal,3.91 µM
same,TGI,UO-31 renal,17.7 µM
same,GI50,UACC-257 melanoma,17.5 µM
same,TGI,UACC-257 melanoma,34.5 µM
same,GI50,ACHN renal,10.7 µM
same,TGI,ACHN renal,23.4 µM
same,GI50,SK-MEL-5 melanoma,16 µM
same,TGI,SK-MEL-5 melanoma,30.9 µM
